Source: patent publication US11660290B2, “Affinity based drug release formulations” (McMaster University, priority 2016, dated 2023)

Key:
[1] = biological target: Alexa-Fluor 488 streptavidin (Streptomyces avidinii, UniProt P22629); experiment: Release study of fluorescent streptavidin from agarose-desthiobiotin hydrogels; conditions: for release of fluorescent streptavidin from the hydrogel (rate, in words): 1 wt % Ag-D gel, insoluble biotin derivative, PBS
Experimental: Ag-D was dissolved in 0.1M PBS at 2 wt %, Alexa-Fluor 488 streptavidin was subsequently added and the mixture was incubated at 37° C. for 2 h. […] Gels were cured at 4 C for 20 min to 1 hr and initial fluorescent readings of the gel were taken. 200 uL of PBS was subsequently dispensed overtop of the gels and collected and replenished at specific time intervals. The loss of fluorescence as well as the released fluorescent streptavidin was measured at specific time points (FIGS. 5B and 6).

[2] = Transparency of agarose hydrogels with solid suspension of oleylbiotin; format: physicochemical; conditions: solid suspension in agarose hydrogel
HUVEC = test system: HUVEC
Experimental: Additionally, toxicity studies were performed using the MTS assay using HUVEC, assessing the toxicity of the components of the drug delivery system as well as the complete drug delivery system (FIGS. 11 A and B).

Chain of Alexa-Fluor 488 streptavidin (P22629 25-183): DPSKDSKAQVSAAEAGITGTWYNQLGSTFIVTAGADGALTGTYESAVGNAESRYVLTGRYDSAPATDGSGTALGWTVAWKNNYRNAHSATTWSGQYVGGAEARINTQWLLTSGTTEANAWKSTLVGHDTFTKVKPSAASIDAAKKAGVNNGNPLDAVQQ

Row | Compound | release of fluorescent streptavidin from the hydrogel (rate, in words) [1] | concentration that did not decrease the transparency of agarose gels [2] | time over which oleylbiotin concentration modulates the release of streptavidin ([1]; various oleylbiotin concentrations, system of Example 1) | duration of streptavidin release (extrapolation of preliminary experiments) ([1]; wild-type streptavidin) | toxicity of single components of the drug delivery system (HUVEC)
1 | O=C(O)CCCC[C@@H]1SC[C@@H]2NC(=O)N[C@@H]21 [biotin, reference compound] | most rapid release | – | – | – | –
2 | oleyl-biotin | slowest and longest release | ≤ 80 µM | at least 150 days | > 100 days | None of the components display any inherent toxicity except for the solid suspension of oleylbiotin
3 | Tert-butyl biotin | slower release | – | – | – | –
